Literature values, collected in patent US20050250828A1 (Entire Interest, priority 2004, published 2005).

What was measured:
[1] = oral administration

| Structure (SMILES) | absorption when administered orally [1] | solubility in methanol (methanol) | solubility in water (water) |
| --- | --- | --- | --- |
| CCOc1nc2cccc(C(=O)O)c2n1Cc1ccc(-c2ccccc2-c2nnn[nH]2)cc1 [Candesartan, 2-ethoxy-1-[[2′-(1H-tetrazol-5-yl)biphenyl-4-yl]methyl]-1H-benzimidazole-7-carboxylic acid] | poorly absorbed | – | – |
| CCOc1nc2cccc(C(=O)OC(C)OC(=O)OC3CCCCC3)c2n1Cc1ccc(-c2ccccc2-c2nnn[nH]2)cc1 (racemic) [candesartan cilexetil, (±)-1-[[(cyclohexyloxy)carbonyl]oxy]ethyl-2-ethoxy-1-[[2′-(1H-tetrazol-5-yl)[1,1′biphenyl]-4-yl]methyl]-1H-benzimidazole-7-carboxylate] | – | sparingly soluble | sparingly soluble |
